Drawing on patent publication US5308864A, “6-(hydronaphtyl-1-ethyl)-4-hydroxy-3,4,5,6-tetrahydro-2H-pyran-2-ones and the corresponding hydroxy acids” (British Bio-Technology Limited, priority 1989, dated 1994), this text covers IC50 for 4 molecules.

In assay [1] the test system is cholesterol biosynthesis in Human hepatoma (HEP G2) cells. The experiment in a line: Assay for the inhibition of cholesterol biosynthesis in cultured cells (Test B, HEP G2). In kind it is cell-based. Particulars: 2-14C-acetate incorporation, HEP G2, 3 hours at 37° C. Here is the method:
ASSAY FOR THE INHIBITION OF CHOLESTEROL BIOSYNTHESIS IN CULTURED CELLS
Human hepatoma (HEP G2) or fibroblastic (HES-9) cells were grown in Dulbecco's modified Eagle's medium (DMEM) with 10% foetal calf serum, in 6 cm tissue culture dishes until approaching confluence (approximately 4 days). The medium was changed to DMEM with 1% foetal calf serum 24 hours prior to experimentation.
Test compounds that are salts were dissolved in aqueous, physiological buffer. Lactones and esters were dissolved in dimethylsulphoxide.
Test compound were added to the cell monolayers concurrently with 2-^14 C-acetate (5 μCi/ml of incubation volume); control samples receiving vehicle together with radioisotope. The incubation was continued for 3 hours at 37° C.
The IC50 for inhibition of sterol synthesis by test compounds was measured from plots of % inhibition (compared to controls) versus log concentration, using at least 5 concentrations of inhibitor.
This assay, therefore, measures the ability of test substances to inhibit intracellular synthesis of cholesterol.

In a further assay the target is T1, HMG-CoA reductase (Rattus norvegicus, UniProt P51639).
T1 construct: from tissue; host or cells: rat liver microsomes (cholestyramine-induced)
T1 sequence (P51639 1-887): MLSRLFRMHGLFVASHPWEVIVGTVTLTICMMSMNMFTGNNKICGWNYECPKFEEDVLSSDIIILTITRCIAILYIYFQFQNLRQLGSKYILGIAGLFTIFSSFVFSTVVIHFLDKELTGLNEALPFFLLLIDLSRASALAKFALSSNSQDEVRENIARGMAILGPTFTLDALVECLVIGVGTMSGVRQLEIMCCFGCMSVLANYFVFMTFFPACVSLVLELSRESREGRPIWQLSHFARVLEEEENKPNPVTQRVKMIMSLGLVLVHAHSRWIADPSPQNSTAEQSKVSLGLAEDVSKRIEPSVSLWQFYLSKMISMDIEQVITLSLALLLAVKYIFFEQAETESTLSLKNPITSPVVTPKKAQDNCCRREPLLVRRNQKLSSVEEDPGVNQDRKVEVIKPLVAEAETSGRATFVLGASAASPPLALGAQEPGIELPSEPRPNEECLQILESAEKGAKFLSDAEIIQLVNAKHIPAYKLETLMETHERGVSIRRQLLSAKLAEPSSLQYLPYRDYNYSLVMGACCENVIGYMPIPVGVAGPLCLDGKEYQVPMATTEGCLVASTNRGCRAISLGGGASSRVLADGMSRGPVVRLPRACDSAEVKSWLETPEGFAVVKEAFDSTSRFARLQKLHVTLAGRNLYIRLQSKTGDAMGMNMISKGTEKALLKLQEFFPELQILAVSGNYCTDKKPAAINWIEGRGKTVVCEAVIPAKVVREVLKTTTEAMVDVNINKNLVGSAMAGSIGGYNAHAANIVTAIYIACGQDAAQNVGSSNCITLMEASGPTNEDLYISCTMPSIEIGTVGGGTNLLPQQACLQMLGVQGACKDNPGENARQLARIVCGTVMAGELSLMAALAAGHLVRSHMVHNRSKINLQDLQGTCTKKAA
Kind of assay: In vitro determination of inhibitory potential of HMG-CoA reductase inhibitors (Test A, rat liver microsomal enzyme). In kind it is biochemical. Particulars: HMG-CoA reductase from rat liver microsomes; inhibitors converted to sodium salts.

Where [2] appears, read: HepG2, inhibition of sterol synthesis.

Procedure for HMG-CoA reductase: HMG-CoA reductase was induced in rats by feeding a normal diet supplemented with 3% cholestyramine resin for one week prior to sacrifice. […] Briefly, the livers were immediately placed in ice-cold buffer I (see below) and homogenised in a Potter-Elvehjem type glass/TEFLON homogeniser (10 passes at 1000 rpm). […] The supernatant was centrifuged at 100,000×g for 75 minutes, the microsomal pellet resuspended in buffer II (see below) and centrifuged at 100,000×g for 75 minutes. The resultant pellet was stored at -70° C. until required for assay purposes.
Membrane bound enzyme isolated as above is used for determining the activity of inhibitors. The assay is performed in a total volume of 300 μl in 100 mM KPO4 pH 7.2 buffer, containing 3 mM MgCl2, 5 mM glucose-6-phosphate, 10 mM reduced glutathione, 1mM NADP, 1 unit glucose-6-phosphate dehydrogenase, and 1 mg/ml BSA, with resuspended enzyme. Putative inhibitors are converted to sodium salts, then dissolved in dimethylsulphoxide and 10 μl aliquots added to the incubation.
The assay is pre-incubated at 37° C. for 10 minutes and initiated by the addition of 0.1 μCi 3-hydroxy-3-methyl-[3-^14 C]glutaryl coenzyme A (52 Ci/Mole) followed by incubating the complete reaction at 37° C. for 10 minutes. At the end of this period the reaction is stopped by adding 300 μl of a 10 mM mevalonolactone solution in 0.1 M hydrochloric acid and the mevalonic acid product allowed to lactonise for a further period of 30 minutes. The product is then isolated by chromatography using Bio-Rex 5 resin and the enzyme activity quantified by liquid scintillation spectrophotometry.
Appropriate controls are included in the assay and IC50 values obtained by graphical means.

Usually IC50 stands for the concentration needed to halve the response being measured. Regarding `CC[C@H](C)C(=O)O[C@H]1C[C@@H](C)C[C@@H]2C=C[C@H](C)[C@H](CC[C@@H]3C[C@@H](O)CC(=O)O3)[C@@H]12` [Dihydromevinolin, reference compound], the figures for the IC50 (in assay [1] (setting [2]); at HMG-CoA reductase) were 40 nM and 30 nM, respectively.
For `C/C=C/[C@@H]1C[C@H](OC(=O)[C@@H](C)CC)[C@@H]2[C@@H](CC[C@@H]3C[C@@H](O)CC(=O)O3)[C@@H](C)C=C[C@H]2C1` [Compound G, (1S,2S,4aR,6S,8S,8aS,4'R,6'R,2"S)6'-{2-(1,2,4a,5,6,7,8,8a-octahydro-2-methyl-8[(2"-methyl-1"-oxobutyl)oxy]-6-[(E)-prop-1-enyl]-1-naphthalenyl)ethyl}-tetrahydro-4'-hydroxy-2H-pyran-2'-one], the midpoint of inhibition in assay [1] (HepG2, after hydrolysis, inhibition of sterol synthesis), the IC50, lay at 25 nM.
`C/C=C/[C@@H]1C[C@H](OC(=O)C(C)(C)CC)[C@@H]2[C@@H](CC[C@@H](O)C[C@@H](O)CC(=O)O)[C@@H](C)C=C[C@H]2C1` [Compound N, Sodium (1S,2S,4aR,6S,8S,8aS,3'R,5'R)-7'-(1,2,4a,5,6,7,8,8a-octahydro-2-methyl-8-[(2"-dimethyl-1"-oxobutyl)oxy]-6-[(E)-prop-1enyl]-1-naphthalenyl)-3',5'-dihydroxyheptanoate]: the IC50 came to 7 nM in assay [1] (setting [2]) and 3 nM at HMG-CoA reductase.
`C/C=C\[C@@H]1C[C@H](OC(=O)[C@@H](C)CC)[C@@H]2[C@@H](CC[C@@H](O)C[C@@H](O)CC(=O)O)[C@@H](C)C=C[C@H]2C1` [Compound B, Sodium (1S,2S,4aR,6S,8S,8aS,3'R,5'R,2"S)-7'-(1,2,4a, 5,6,7,8,8a-octahydro-2-methyl-8[(2"-methyl-1"-oxobutyl)oxy]-6-[(Z)-prop-1-enyl]-1-naphthalenyl)-3',5'-dihydroxyheptanoate]: the figures for the IC50 (in assay [1] (setting [2]); at HMG-CoA reductase) were 60 nM and 15 nM, respectively.
